Test results: patent US8192962B2, “Processes for detecting toxic substances” (Daikin Industries, Ltd., priority 2001, dated 2012)

System: Transport facilitation protein genes
Assay: DNA chip mRNA expression in yeast, transport facilitation protein genes (Table 5)
Assay type: cell-based, Saccharomyces cerevisiae S288C
How it was run: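 Values are treated/untreated fluorescence ratios from a whole-genome yeast DNA chip hybridized over 12 hours at 65° C with Cy3- or Cy5-labelled cDNA from poly(A) mRNA. Log-phase S288C yeast in YPD at 25° C had received a single toxic chemical for two hours, dosed to slow growth without killing.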

C[S+](C)[O-] [(15), dimethylsulfoxide]
The level of expressed mRNA in the presence of chemical substance/The level of expressed mRNA in the absence of chemical substance (yeast gene YBR052C): 0.7 | The level of expressed mRNA in the presence of chemical substance/The level of expressed mRNA in the absence of chemical substance (yeast gene YIL022W): 2.9 | The level of expressed mRNA in the presence of chemical substance/The level of expressed mRNA in the absence of chemical substance (yeast gene YKL016C): 0.7 | The level of expressed mRNA in the presence of chemical substance/The level of expressed mRNA in the absence of chemical substance (yeast gene YLR081W): 0.7 | The level of expressed mRNA in the presence of chemical substance/The level of expressed mRNA in the absence of chemical substance (yeast gene YPR194C): 0.4
